Among the test systems are SK-MEL-5; OVCAR-5; PC-3; RXF 393; K562; MDA-N; A549; SK-MEL-28; IGROV-1; SW-620; RPMI-8226; SF-268; HOP-62; COLO 205; OVCAR-4; HCT-116; LOX IMVI; HCT-15; CAKI-1; HCC 2998.
What all share (experiment): DTP human tumour cell line panel, 48 h

Where “and” joins values, the source holds several entries; their conditions need not be identical. Identical values can stand only once.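 Growth conditions: 96-well plates. Treatment: test compound, 48 hours, 5 concentrations. Analysis: linear interpolation between bracketing concentrations; unreached endpoints set to highest concentration. GI50: concentration for 50% inhibition of growth.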 Calls of active or inactive are those of the source. No stated cut-off is given here; in the data, active = GI50 up to about 1.1 µM and inactive = higher.

As usually defined, the GI50 is the concentration giving 50% growth inhibition.

For `Cc1cc(C)c(S(=O)(=O)N(CCCCCCN)OCCCON(CCCCCCN)S(=O)(=O)c2c(C)cc(C)cc2C)c(C)c1`, the GI50 was 1.82 µM (inactive) in the assay with SK-MEL-5; 1.4 µM (inactive) in the assay with OVCAR-5; 1.77 µM (inactive) in the assay with PC-3; 1.7 µM (inactive) in the assay with RXF 393; 3.61 µM (inactive) with K562; 1.88 µM (inactive) with MDA-N. Moreover, the GI50 is 1.72 µM (inactive) with A549; 1.83 µM (inactive) in the assay with SK-MEL-28; 1.65 µM (inactive) in the assay with IGROV-1; 2.15 µM (inactive) in the assay on SW-620; 2.43 µM (inactive) in the assay on RPMI-8226; 1.78 µM (inactive) with SF-268. Further, the GI50 with HOP-62 was 1.8 µM (inactive); in the assay on COLO 205 it was 1.89 µM (inactive); in the assay with OVCAR-4, 1.67 µM (inactive); with HCT-116 it was 1.69 µM (inactive); in the assay on LOX IMVI, 1.7 µM (inactive); in the assay on HCT-15 it was 1.8 µM. Also, in the assay with CAKI-1, the GI50 is 1.94 µM (inactive).

For `Cc1ccc(S(=O)(=O)N2CCN(CCO)CCN(S(=O)(=O)c3ccc(C)cc3)CCN(CCO)CC2)cc1`, the GI50 is 13.6 µM (inactive) in the assay on SK-MEL-5; 44.1 µM (inactive) in the assay on OVCAR-5; 33 µM (inactive) in the assay with PC-3; 13.9 µM (inactive) in the assay with RXF 393; 17.1 µM (inactive) in the assay with K562; 27.2 µM (inactive) in the assay on MDA-N. In addition, the GI50 is 20.7 µM (inactive) in the assay with A549; 16.3 µM (inactive) in the assay with SK-MEL-28; 21.5 µM (inactive) in the assay with IGROV-1; 33.7 µM (inactive) in the assay on SW-620; 26.1 µM (inactive) in the assay with SF-268; 27.5 µM (inactive) in the assay with HOP-62. Moreover, the GI50 was 15.3 µM (inactive) in the assay with COLO 205; 15 µM (inactive) in the assay with OVCAR-4; 15 µM (inactive) in the assay on HCT-116; 15.4 µM (inactive) in the assay on HCC 2998; 13.6 µM (inactive) in the assay on LOX IMVI; 18.6 µM in the assay on HCT-15. For the same molecule, the GI50 in the assay on CAKI-1 was 37.8 µM (inactive).

As to `Cn1c(=O)oc2cc(C(=O)CN3CCN(Cc4ccc5c(c4)OCO5)CC3)c(Cl)cc21`, the GI50 with SK-MEL-5, in the assay with OVCAR-5, in the assay on PC-3, with RXF 393, in the assay with K562 and in the assay with MDA-N was > 100 µM (inactive) in each case. The GI50 with IGROV-1, with RPMI-8226, in the assay on SF-268, in the assay on HOP-62, with COLO 205 and in the assay with HCT-116 was > 100 µM (inactive) each time. Also, the GI50 in the assay on HCC 2998 is > 100 µM (inactive); in the assay on LOX IMVI, 80.4 µM (inactive); with HCT-15, greater than 100 µM; in the assay on CAKI-1, > 100 µM (inactive).

`Nc1nc(N)nc(CCCCc2nc(N)nc(N)n2)n1`: the GI50 in the assay with SK-MEL-5, in the assay on OVCAR-5, in the assay on PC-3, with RXF 393, in the assay with K562 and in the assay on MDA-N was > 100 µM (inactive) in each case. For the same molecule, the GI50 in the assay with A549, in the assay with SK-MEL-28, in the assay with IGROV-1, with SW-620, in the assay on RPMI-8226 and in the assay with SF-268 was > 100 µM (inactive) in each case. Besides, the GI50 with HOP-62 was > 100 µM (inactive); with COLO 205 it was > 100 µM (inactive); in the assay with OVCAR-4 it was > 100 µM (inactive); with HCT-116, > 100 µM (inactive); in the assay on LOX IMVI it was > 100 µM (inactive); in the assay with HCT-15 it was greater than 100 µM. The GI50 in the assay on CAKI-1 was > 100 µM (inactive).

In the case of `O=c1c2c3ccccc3[nH]c2c2cccc3c2n1CCC3`, the GI50 in the assay with SK-MEL-5 was 17.6 µM (inactive); in the assay with OVCAR-5 it was 66.7 µM (inactive); in the assay with PC-3 it was 26.8 µM (inactive); with RXF 393, 29.4 µM (inactive); in the assay with K562, 32.3 µM (inactive); in the assay on MDA-N, 66.5 µM (inactive). Also, the GI50 with A549 was 48.1 µM (inactive); with SK-MEL-28 it was 41.8 µM (inactive); in the assay with IGROV-1, 84.5 µM (inactive); with SW-620, 43.3 µM (inactive); in the assay with SF-268, 33 µM (inactive); with HOP-62, 54.1 µM (inactive). The GI50 with COLO 205 was 54 µM (inactive); in the assay on HCT-116 it was 36.6 µM (inactive); with HCC 2998, 29.2 µM (inactive); in the assay with HCT-15, 32.4 µM.

For the molecule `N#CCC(=O)N/N=C\C(O)C(O)C(O)C(O)CO` (stereo not drawn), the GI50 with SK-MEL-5, in the assay on OVCAR-5, in the assay on PC-3, with RXF 393, in the assay with K562 and with MDA-N was > 100 µM (inactive) in each case. Also, the GI50 in the assay on A549, with SK-MEL-28, with IGROV-1, in the assay on SW-620, with RPMI-8226 and with SF-268 was > 100 µM (inactive) each time. Also, the GI50 with HOP-62 was > 100 µM (inactive); in the assay on HCC 2998, > 100 µM (inactive); in the assay on LOX IMVI, > 100 µM (inactive); in the assay on HCT-15, greater than 100 µM; in the assay on CAKI-1, > 100 µM (inactive).

Turning to `CC(C)(C)OC(=O)N1CCCC1=O`, the GI50 with SK-MEL-5, in the assay on OVCAR-5, with PC-3, with RXF 393, in the assay on K562 and with MDA-N was > 10 µM (inactive) in each case. Further, the GI50 in the assay on A549, in the assay with SK-MEL-28, with IGROV-1, in the assay with SW-620, with RPMI-8226 and with SF-268 was > 10 µM (inactive) each time. Besides, the GI50 in the assay with HOP-62 was > 10 µM (inactive); with HCT-116 it was > 10 µM (inactive); with HCC 2998, > 10 µM (inactive); with LOX IMVI it was > 10 µM (inactive); in the assay with HCT-15, greater than 10 µM.

Consider `COc1cccc(C2c3cc4c(cc3OC(N3CCCC3)C2c2ccccc2)OCO4)c1O` (stereo not drawn), for which the GI50 with SK-MEL-5 is 10.8 µM (inactive); in the assay on OVCAR-5, 25.2 µM (inactive); in the assay with PC-3, 8.28 µM (inactive); with K562, 5.35 µM (inactive); with MDA-N, 8.18 µM (inactive); in the assay on A549, 11.6 µM (inactive). Also, the GI50 in the assay on SK-MEL-28 was 13 µM (inactive); in the assay with IGROV-1, 7.59 µM (inactive); in the assay with SW-620, 7.78 µM (inactive); in the assay with RPMI-8226 it was 5.69 µM (inactive); with SF-268, 9.02 µM (inactive); in the assay on HOP-62, 21 µM (inactive). The GI50 with COLO 205 is 7.24 µM (inactive); in the assay with HCT-116, 4.21 µM (inactive); in the assay with HCC 2998, 11 µM (inactive); with LOX IMVI, 12.4 µM (inactive); in the assay on HCT-15, 6 µM; in the assay with CAKI-1, 2.88 µM (inactive).

Consider `COC(=O)c1cc(C)ccc1C1CN=NC12Cc1ccc(C)cc1C2=O` (stereo not drawn), for which the GI50 was 15.5 µM (inactive) with SK-MEL-5; > 100 µM (inactive) with OVCAR-5; 32.4 µM (inactive) in the assay with PC-3; 59.6 µM (inactive) in the assay on RXF 393; 19.4 µM (inactive) with K562; 31.6 µM (inactive) in the assay with MDA-N. The GI50 in the assay on A549 was 29.8 µM (inactive); in the assay with SK-MEL-28, > 100 µM (inactive); in the assay on IGROV-1 it was 63.4 µM (inactive); in the assay with SW-620 it was 53.2 µM (inactive); with SF-268, 32.7 µM (inactive); in the assay on HOP-62, > 100 µM (inactive). In addition, the GI50 is 15.8 µM (inactive) with COLO 205; 20 µM (inactive) with OVCAR-4; 27.1 µM (inactive) in the assay with HCT-116; 31.4 µM (inactive) in the assay on HCC 2998; 31.2 µM (inactive) in the assay on LOX IMVI; 40.1 µM in the assay on HCT-15. Also, the GI50 in the assay on CAKI-1 was 83.4 µM (inactive).

As for `CN(C)CCOC1(Cc2ccc(F)cc2)CCC(C(C)(C)C)CC1` (stereo not drawn), the GI50 in the assay with SK-MEL-5 is 1.93 µM (inactive) and 1.74 µM (inactive); in the assay with OVCAR-5, 7.59 µM (inactive) and 7.85 µM (inactive); in the assay on PC-3 it was 5.85 µM (inactive) and 5.07 µM (inactive); in the assay with RXF 393 it was 0.857 µM (active); with K562, 2.03 µM (inactive) and 2.19 µM (inactive); in the assay with MDA-N, 3.2 µM (inactive) and 5.93 µM (inactive). The GI50 with A549 was 9.77 µM (inactive) and 11.9 µM (inactive); in the assay on SK-MEL-28 it was 6.05 µM (inactive) and 4.17 µM (inactive); with IGROV-1 it was 11.1 µM (inactive) and 11.5 µM (inactive); in the assay on SW-620 it was 4.37 µM (inactive) and 7.36 µM (inactive); with RPMI-8226, 2.3 µM (inactive) and 2.48 µM (inactive); in the assay on SF-268, 12.4 µM (inactive) and 12.9 µM (inactive). The GI50 in the assay on HOP-62 is 7 µM (inactive) and 6.82 µM (inactive); in the assay with COLO 205, 2.03 µM (inactive) and 2.15 µM (inactive); in the assay on HCT-116, 4.39 µM (inactive) and 4.75 µM (inactive); in the assay with HCC 2998 it was 2.96 µM (inactive) and 3.14 µM (inactive); with LOX IMVI it was 2.42 µM (inactive) and 3.2 µM (inactive); in the assay with HCT-15 it was 8.13 µM and 6.81 µM. Also, in the assay on CAKI-1, the GI50 is 6.47 µM (inactive) and 7.69 µM (inactive).

Take `COC(=O)[C@@H]1COC(C(C)(C)C)N1C(=O)C(c1ccccc1)c1ccccc1` (stereo partly drawn): the GI50 in the assay with SK-MEL-5 was 36.8 µM (inactive); with OVCAR-5, > 100 µM (inactive); in the assay with PC-3, 24.8 µM (inactive); in the assay on RXF 393, 13.2 µM (inactive); in the assay on K562 it was 19.5 µM (inactive); with MDA-N, 26 µM (inactive). Moreover, the GI50 in the assay with A549 is 65.8 µM (inactive); in the assay on SK-MEL-28 it was > 100 µM (inactive); in the assay with IGROV-1 it was 73.1 µM (inactive); in the assay on SW-620, 43.8 µM (inactive); in the assay on SF-268 it was > 100 µM (inactive); in the assay with HOP-62 it was > 100 µM (inactive). In addition, the GI50 is 61.7 µM (inactive) with COLO 205; 43.2 µM (inactive) in the assay on OVCAR-4; 41.3 µM (inactive) with HCT-116; 48.3 µM (inactive) in the assay with HCC 2998; 22.6 µM (inactive) in the assay on LOX IMVI; 35.4 µM in the assay on HCT-15. Further, the GI50 in the assay with CAKI-1 is > 100 µM (inactive).

For the origin of these results see ChEMBL document CHEMBL1201862, “PubChem BioAssay data set” (2004).
